COC(=O)Nc1nc2ccc(S(=O)c3ccccc3)cc2[nH]1 (configuration not stated)
solubility (mole fraction)
Settings	278.15 K	283.15 K	288.15 K	293.15 K	298.15 K	303.15 K	308.15 K	313.15 K	318.15 K	323.15 K
in 2-ethoxyethanol	0.00043	0.000518	0.000583	0.000682	0.00079	0.000908	0.00104	0.00118	0.00132	0.00144
in 2-methoxyethanol	0.000687	0.000777	0.000887	0.00104	0.00118	0.00133	0.0015	0.00173	0.00191	0.00215
in 2-propoxyethanol	0.000338	0.000402	0.000476	0.000554	0.000629	0.000727	0.000802	0.0009	0.00103	0.00117
in DMAc	0.00381	0.00471	0.00576	0.00659	0.00821	0.00976	0.0112	0.0125	0.0147	0.017
in DMF	0.00284	0.00329	0.00363	0.00408	0.00454	0.00502	0.00576	0.00632	0.00718	0.00796
in DMSO	–	–	–	0.00925	0.0109	0.012	0.0138	0.0157	0.0175	0.0194
in diglyme	0.00015	0.000174	0.000203	0.000241	0.00028	0.000321	0.000362	0.000406	0.000454	0.000502
in methanol	8.35e-05	9.72e-05	0.00012	0.000148	0.00017	0.000201	0.000242	0.000287	0.000332	0.000389

— BigSolDB 2.1
